Data: ChEMBL document CHEMBL5329212, “In situ click chemistry-based discovery of 1,2,3-triazole-derived diarylpyrimidines as novel HIV-1 NNRTIs by exploiting the tolerant region I in binding pocket” (Bioorg Med Chem, 2023)
Values after ≈ are worked out from the molar mass of the structure shown.

Assays:
[1] = Half life in Wistar rat at 2 mg/kg, iv measured upto 8 hrs by LC-MS/MS analysis; format: ADME, organism-based; conditions: in vivo
[2] = biological target: Human immunodeficiency virus type 1 reverse transcriptase (Human immunodeficiency virus 1) (UniProt Q72547); test: Inhibition of HIV-1 reverse transcriptase at 0.267 uM incubated for 1 hrs in presence of biotin-labeled dNTPs by ELISA assay relative to control
[3] = test system: Human immunodeficiency virus 1; test: Antiviral activity against HIV-1 harboring RT Y188L mutant infected in human MT4 cells assessed as protection against virus-induced cytopathic effect measured after 5 days by MTT assay; format: functional, organism-based; conditions: Human immunodeficiency virus 1, MT4, 120 h
[4] = test system: Human immunodeficiency virus 1; test: Antiviral activity against HIV-1 harboring RT K103N mutant infected in human MT4 cells assessed as protection against virus-induced cytopathic effect measured after 5 days by MTT assay; format: functional, organism-based; conditions: Human immunodeficiency virus 1, MT4, 120 h
[5] = test system: Human immunodeficiency virus 1; test: Antiviral activity against wild type HIV-1 IIIB infected in human MT4 cells assessed as protection against virus-induced cytopathic effect measured after 5 days by MTT assay; format: functional, organism-based; conditions: Human immunodeficiency virus 1, IIIB, MT4, 120 h
[6] = Aqueous solubility of the compound at pH 2 at 0.1 to 10 mg; format: physicochemical; conditions: aqueous medium, dose 0.1-10 mg
[7] = test system: Human immunodeficiency virus 1; test: Antiviral activity against HIV-1 harboring RT E138K mutant infected in human MT4 cells assessed as protection against virus-induced cytopathic effect measured after 5 days by MTT assay; format: functional, organism-based; conditions: Human immunodeficiency virus 1, MT4, 120 h
[8] = test system: Human immunodeficiency virus 1; test: Antiviral activity against HIV-1 harboring RT RES056 mutant infected in human MT4 cells assessed as protection against virus-induced cytopathic effect measured after 5 days by MTT assay; format: functional, organism-based; conditions: Human immunodeficiency virus 1, MT4, 120 h
[9] = test system: Human immunodeficiency virus 1; test: Antiviral activity against HIV-1 harboring RT F227L/V106A double mutant infected in human MT4 cells assessed as protection against virus-induced cytopathic effect measured after 5 days by MTT assay; format: functional, organism-based; conditions: Human immunodeficiency virus 1, MT4, 120 h
[10] = test system: Human immunodeficiency virus 1; test: Antiviral activity against HIV-1 harboring RT Y181C mutant infected in human MT4 cells assessed as protection against virus-induced cytopathic effect measured after 5 days by MTT assay; format: functional, organism-based; conditions: Human immunodeficiency virus 1, MT4, 120 h
[11] = biological target: Human immunodeficiency virus type 1 reverse transcriptase (Human immunodeficiency virus 1, UniProt Q72547); test: Inhibition of HIV-1 reverse transcriptase incubated for 1 hrs in presence of biotin-labeled dNTPs by ELISA assay
[12] = Aqueous solubility of the compound at pH 7.4 at 0.1 to 10 mg; format: physicochemical; conditions: aqueous medium, dose 0.1-10 mg
[13] = test system: Human immunodeficiency virus 1; test: Antiviral activity against HIV-1 harboring RT L100I mutant infected in human MT4 cells assessed as protection against virus-induced cytopathic effect measured after 5 days by MTT assay; format: functional, organism-based; conditions: Human immunodeficiency virus 1, MT4, 120 h
[14] = Aqueous solubility of the compound at pH 7.0 at 0.1 to 10 mg; format: physicochemical; conditions: aqueous medium, dose 0.1-10 mg
[15] = Cytotoxicity against human MT4 cells assessed as reduction in cell viability measured after 5 days by MTT assay; format: toxicity, cell-based; conditions: time 5 day

SMILES	half-life [1]	inhibition [2]	EC50 [3]	EC50 [4]	EC50 [5]	solubility [6]	EC50 [7]	EC50 [8]	EC50 [9]	EC50 [10]	IC50 [11]	solubility [12]	EC50 [13]	solubility [14]	CC50 at 120 h [15]
Cc1cc(C#N)cc(C)c1Oc1nc(NC2CCN(Cc3ccc(S(N)(=O)=O)cc3)CC2)nc2ncsc12	2 h														
Cc1cc(C#N)cc(C)c1Oc1nc(NC2CCN(Cc3ccc(S(N)(=O)=O)cc3)CC2)nc2ccsc12	1.6 h	39.1%													
Cc1cc(C#N)cc(C)c1Oc1nc(Nc2ccc(-c3cn(S(=O)(=O)n4ccnc4)nn3)cc2)nc2ccsc12		66.5%	250 nM	10 nM	10 nM	102 µg/mL (≈ 179 µM)	30 nM	≥ 5640 nM	260 nM	160 nM	30 nM	44.2 µg/mL (≈ 77.6 µM)	80 nM	64.7 µg/mL (≈ 114 µM)	140000 nM
Cc1cc(C#N)cc(C)c1Oc1nc(Nc2ccc(-c3cn(CCN4C(=O)c5ccccc5C4=O)nn3)cc2)nc2ccsc12		46.2%	≥ 157000 nM	2110 nM	1850 nM		13800 nM	> 204000 nM	124000 nM	45700 nM	3360 nM		3200 nM		> 204000 nM
Cc1cc(C#N)cc(C)c1Oc1nc(Nc2ccc(-c3cn(Cc4ccc(S(N)(=O)=O)cc4)nn3)cc2)nc2ccsc12		46.3%	3210 nM	40 nM	30 nM		50 nM	> 205000 nM	3610 nM	2630 nM	190 nM		990 nM		> 205000 nM
Cc1cc(C#N)cc(C)c1Oc1nc(NC2CCN(Cc3ccc(S(N)(=O)=O)cc3)CC2)nc2scnc12	0.9 h														
Cc1cc(C#N)cc(C)c1Oc1nc(Nc2ccc(-c3cn(-c4ccc5c(c4)OCO5)nn3)cc2)nc2ccsc12		50%	165000 nM	2010 nM	1800 nM		7170 nM	> 223000 nM	77800 nM	69400 nM	1050 nM		10900 nM		> 223000 nM
Cc1cc(C#N)cc(C)c1Oc1nc(Nc2ccc(-c3cn(Cc4ccc(C(N)=O)cc4)nn3)cc2)nc2ccsc12		39.5%	12000 nM	80 nM	30 nM		150 nM	> 218000 nM	7070 nM	6960 nM	250 nM		1470 nM		> 218000 nM
CCOC(=O)c1ccc(Cn2cc(-c3ccc(Nc4nc(Oc5c(C)cc(C#N)cc5C)c5sccc5n4)cc3)nn2)cc1		60%	> 208000 nM	860 nM	540 nM		780 nM	> 208000 nM	> 208000 nM	120000 nM	430 nM		34800 nM		> 208000 nM
Cc1cc(C#N)cc(C)c1Oc1nc(Nc2ccc(-c3cn(Cc4ccc(S(C)(=O)=O)cc4)nn3)cc2)nc2ccsc12		51.9%	124000 nM	60 nM	40 nM		140 nM	≥ 104000 nM	110000 nM	20000 nM	410 nM		2160 nM		> 206000 nM
